In general, IC50 refers to the concentration at which inhibition is half-maximal.

Results on one compound are retold here after US20250091989A1, “SMALL MOLECULE PROTEIN SYNTHESIS MODULATORS” (Interdict Bio, Inc., priority 2023, published 2025).

SMILES strings stand for the structures. Some results are limits rather than exact numbers.

One experiment concerns ALK. The experiment in a line: In vitro transcription-translation (IVTT) reporter assay, ALK test sequence. The class given is biochemical. The note with it: HeLa S3 lysate, sfGFP/mCherry ratio, 2 hrs at 30° C. An outline of the steps: (§1)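 Coupled transcription-translation in HeLa S3 lysate with reporter plasmids encoding mCherry-P2A-3×FLAG-TEST-sfGFP behind an EMCV IRES. Compounds were half-log titrated (30 μM-0.1 μM in DMSO dilution plate) into master mix, then DNA was added. Reactions ran 2 hrs at 30° C, were PBS-quenched and read for fluorescence.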

The next experiment deals with MYC. Kind of experiment: In vitro transcription-translation (IVTT) reporter assay, MYC test sequence. The class given is biochemical. The conditions noted are these: HeLa S3 lysate, sfGFP/mCherry ratio, 2 hrs at 30° C. The method in brief: as §1
Background: A reporter such as luciferase makes a cellular process visible.

A further experiment has as its system KRAS G12D. Kind of experiment: In vitro transcription-translation (IVTT) reporter assay, KRAS G12D test sequence. It is filed as biochemical. The note with it: HeLa S3 lysate, sfGFP/mCherry ratio, 2 hrs at 30° C. The method in brief:
as §1

A further experiment relates to BCL-2. Kind of experiment: In vitro transcription-translation (IVTT) reporter assay, BCL-2 test sequence. It is filed as biochemical. The note with it: HeLa S3 lysate, sfGFP/mCherry ratio, 2 hrs at 30° C. An excerpt: (§2) All reporter constructs have been cloned into the pT7CFE1-CHis plasmid (ThermoFisher #88860) using Gibson assembly procedures (NEB #E2611L). The parental pT7CFE1-CHis plasmid contains an EMCV IRES at the 5′UTR for translation initiation, a multiple-cloning site (MCS) for gene insertion, an optional C-terminal His-epitope tag, and polyA sequence in the 3′UTR to regulate mRNA stability. All reporters are designed to be inserted at the MCS to include a red fluorescent protein (mCherry), P2A self-cleaving peptide which releases the preceding mCherry protein product, and a fusion open reading frame containing a 3×FLAG epitope, a peptide sequence of interest (TEST), and green fluorescent protein (sfGFP).
(§3) Construct Plasmid Preparation: All plasmids are isolated from MACH1 cells (ThermoFisher) grown overnight in ampicillin-containing luria broth, and purified using ZymoPure Express Plasmid Midiprep Kit (Zymo Research). Constructs are sequenced verified and diluted to a working concentration of 110 ng/μL.
(§4) HeLa S3 Lysate Preparation: HeLa S3 cell pellets are acquired from Ipracell/Ipratech (Belgium) and shipped as 4 mL frozen cell pellets on dry ice for storage at −80° C. until use. The procedure for lysate preparation is as follows. Prepare 1× Lysis Buffer, cold and stored on ice:
(§5) Each preparation takes 8 cell pellets (4 ml packed volume each, approximately 1.0×10^9 cells per pellet). Thaw cell pellets from −80° C. on ice for 90 mins. Lay pellets horizontally on top of the ice and rotate every 30 mins to ensure even thawing. Once thawed, add 4 mL of cold lysis buffer to each pellet, and using a serological pipet, gently pipet up and down to break up clumps. Incubate resuspended cells in ice for an additional 30 mins (plunged into ice). During 30 min incubation, rinse and RNase-zap (Ambion) glass dounces (use loose pestle “A”), gently dry and place on ice until needed. Prepare RNase-free Eppendorf tubes for spinning and for batch storage. Add batch labels to 1.5-1.7 mL RNase-free microcentrifuge tubes (labeling scheme below). Each batch will have an extra 1.5-1.7 mL RNase-free microcentrifuge tube for 40 μL of lysate, label the top of this tube (labeling scheme below). After 30 min incubation, transfer all 8 mL of cell pellet to dounce. Cell lysis is complete after douncing 100 times. Aliquot cell lysis into 1.5-1.7 mL temporary-microcentrifuge tubes. Place tubes in centrifuge with “fins” out, and spin at 1,200 xg for 5 mins. After the first spin use a 1 mL pipet to resuspend each tube and repeat spin. This acts as an additional lysis step, is more vigorous and increases lysate yield. During second spin get liquid N2 and a fresh conical tube on ice.
(§6) After spin is complete, transfer supernatant (lysate) from microcentrifuge tubes into the 50 mL conical tube and keep on ice. Repeat steps 10-14 for all other cell pellets until completed. Once all cell lysate has been transferred to the 50 mL conical tube pipet to mix so the solution is homogenous. Transfer 1 mL of lysate into batch-labeled microcentrifuge tubes and flash freeze in liquid nitrogen. Be sure to pipet up and down to mix throughout transfer step. Place all tubes in the […] for long-term storage.
(§7) In vitro transcription-translation assay setup: Each assay includes a master mix containing lysate and shared components, a 96-well plate containing compound titrations for testing, a 96-well DNA plate with reporter constructs to be tested, 96-well skirted PCR plates, and 96-well flat-bottom, black, fluorescent assay plates. […]

A further experiment has as its system CCND1. Kind of experiment: In vitro transcription-translation (IVTT) reporter assay, CCND1 test sequence. It is filed as biochemical. The conditions noted are these: HeLa S3 lysate, sfGFP/mCherry ratio, 2 hrs at 30° C. An outline of the steps: as §1
Another experiment concerns MCL-1. The experiment in a line: In vitro transcription-translation (IVTT) reporter assay, MCL-1 test sequence. It is filed as biochemical. The note with it: HeLa S3 lysate, sfGFP/mCherry ratio, 2 hrs at 30° C.
Description: as §2, §3, §4, §5, §6, §7

The next experiment has as its system HEK 293T. Kind of experiment: Cell viability (CellTiter-Fluor), HEK 293T. It is filed as cell-based. The conditions noted are these: Homo sapiens, 24-72 hrs. How it is done:
(§8) Count and dispense 2,000-10,000 cells per well (100 μL volume) in black 96-well tissue culture microplate and let cells adhere overnight. Add compound dissolved in 100% DMSO to each well as needed and incubate cells in standard culture conditions for 24-72 hrs. Final DMSO concentration in each well should be 0.1-0.5%. At the desired time point, gently aspirate compound containing media and replace with PBS to wash. Repeat wash step for 2 total washes. Remove PBS and add 100 μL CellTiter-Fluor reagent (Promega) reagent to each well. Seal plate and incubate 1 hr at room temperature with orbital shaking. Analyze fluorescence using plate reader to quantify viable cells compared with vehicle (DMSO) control.

For the next experiment, the system named is HPAF-II. Kind of experiment: Cell viability (CellTiter-Fluor), HPAF-II. The class given is cell-based. The note with it: Homo sapiens, 24-72 hrs. As for the experimental part: as §8
Another experiment deals with KLE. The experiment in a line: Cell viability (CellTiter-Fluor), KLE. It is filed as cell-based. The note with it: Homo sapiens, 24-72 hrs. As for the experimental part:
as §8

Another experiment relates to LS411N. Kind of experiment: Cell viability (CellTiter-Fluor), LS411N. It is filed as cell-based. The conditions noted are these: Homo sapiens, LS-411N, 24-72 hrs. As for the experimental part: as §8
A further experiment deals with MCF7. Kind of experiment: Cell viability (CellTiter-Fluor), MCF7. It is filed as cell-based. The note with it: Homo sapiens, MCF7, 24-72 hrs. How it is done:
as §8

The subject of another experiment is NCI-H1915. The experiment in a line: Cell viability (CellTiter-Fluor), NCI-H1915. It is filed as cell-based. The conditions noted are these: NCI-H1915, 24-72 hrs. How it is done:
as §8

The test system of a further experiment is HCC38. The experiment in a line: Cell viability (CellTiter-Fluor), HCC38. The class given is cell-based. The conditions noted are these: Homo sapiens, HCC38, 24-72 hrs. As for the experimental part:
as §8

The subject of a further experiment is HEPG2. Kind of experiment: Cell viability (CellTiter-Fluor), HEPG2. The conditions noted are these: Homo sapiens, HEPG2, 24-72 hrs. The class given is cell-based. As for the experimental part:
as §8

Another experiment has as its system KATO-III. The experiment in a line: Cell viability (CellTiter-Fluor), KATO-III. The note with it: Homo sapiens, 24-72 hrs. It is filed as cell-based. As for the experimental part:
as §8

A further experiment concerns MS751. The experiment in a line: Cell viability (CellTiter-Fluor), MS751. The class given is cell-based. The note with it: MS751, 24-72 hrs. How it is done:
as §8

In a further experiment the test system is T47D. The experiment in a line: Cell viability (CellTiter-Fluor), T47D. The class given is cell-based. The note with it: Homo sapiens, 24-72 hrs. As for the experimental part: as §8

As for `COc1ccc(C[C@H]2NC[C@H](O)[C@H]2OC(=O)C[C@@H]2CCNC2)cc1` [V187690], the IC50 in the experiment with ALK, in the experiment with MYC, in the experiment with KRAS G12D, with BCL-2, with CCND1 and in the experiment with MCL-1 was less than 10000 nM throughout. Moreover, the IC50 with HEK 293T is 250 to 1000 nM; with HPAF-II, not below 4000 nM; with KLE, 1000 to 4000 nM; with LS411N, 250 to 1000 nM; with MCF7 it was 250 to 1000 nM; in the experiment on NCI-H1915 it was not below 4000 nM. The IC50 in the experiment on HCC38 was in the range of 1000 to 4000 nM; in the experiment with HEPG2, 250 to 1000 nM; in the experiment with KATO-III it was 1000 to 4000 nM; in the experiment with MS751, 250 to 1000 nM; in the experiment on T47D, 1000 to 4000 nM.
